# Key:
# ND7 cells = assay: β-galactosidase reporter gene assay, transfection of undifferentiated ND7 cells; format: cell-based, rat/mouse
# Method: ND7 cells were seeded at a density of 5 ×10^4 cells/well in 24 well culture dishes 24 hrs prior to transfection. Immediately prior to transfection, cells were washed in serum-free media. Complexes were formed by incubating pCMVβ with Mu1 prior to the addition of the cationic liposome DC-Chol/DOPE. In each case 1 μg pCMVβ was complexed with 0.6, 6, 12, and 21 μg Mu1 peptide. Each of these combinations was then complexed with 3, 4 and 6 μg DC-Chol/DOPE. ND7 cells were exposed to transfection complexes for 2 hours then maintained at 37° C., 5% CO2 for another 24 hrs before being harvested and processed for β-galactosidase enzyme assay. Numbers represent means±SD, n=3.
# pCMVβ plasmid DNA was complexed to various amounts of polycationic peptide and then mixed with cationic liposome at a ratio of 1:3 (pCMVβ:liposome; w/w). After being washed briefly in serum free media, ND7 cells were exposed to the […] complexes for two hours and then returned to serum containing media Twenty-four hours later the cells were harvested and processed for β-galactosidase enzyme assay. Each condition was performed in triplicate and each experiment replicated three times. Numbers represent means±SD.
# ND7s are a well-characterized cell line derived from the fusion of a neuroblastoma N18Tg2) with neonatal rat sensory neurons ^28. The cell line was maintained in normal growth media (NGM) (Leibovitz's L-15 media (BRL) enriched with 10% Fetal bovine serum (BRL), 4 g/L glucose, 4 g/L sodium bicarbonate (BRL), 100 IU/mL penicillin/streptomycin (BRL)) at 37° C. and 5% CO2. The cells were plated onto 24 well plates (Costar) at a density that produced 70% confluence after 24 hours.
# Since initial experiments determined that the presence of fetal bovine serum inhibited transfection of ND7 cells serum-free differentiation media was used for all transfections. Various amounts of DNA and liposome were placed in the bottom of a 7 mL sterile Bijou container (Bibby Sterilin Ltd., Staffordshire, U.K.), but not in contact with each other.
# DNA and liposomes were combined by the addition of 400 μL serum-free differentiation media and gentle shaking. The DNA: liposome mixture was incubated at room temperature for 20 to 30 minutes before being applied to the cells. The DNA/liposome mixture was then applied to the cells and incubated at 37° C., 5% CO2 for 2 hours after which this media was replaced with complete media Twenty four to 48 hours later the cells were fixed and processed for X-gal histochemistry as described ^31 or harvested for β-galactosidase enzyme assays (Promega Corp.).
# Transfection complexes including the test peptides were generated in the following manner. Various amounts of peptide was placed in the bottom of sterile polystyrene containers alongside, but not in contact with 1 μg·pCMVβ and mixed by adding 400 μl serum free NGM media The complexes were incubated at room temperature for 10 minutes after which DC-Chol/DOPE was added. The pDNA/peptide/liposome complex was further incubated at room temperature for 20 minutes and then administered to cells as above.
# We examined the ability of Mu1 and Vp1 to enhance the transfection of a neuronal cell line by cationic liposomes using a β-Galactosidase reporter gene assay. ND7 cells were transfected with pCMVβ complexed to varying amounts of peptide and DC-Chol/DOPE. We have previously shown that the cationic liposome DC-Chol/DOPE is capable of efficiently transfecting the neuronally derived ND7 cell line ^31. […] Temporally, maximal levels of transgene expression are obtained between 48-60 hours post transfection. Therefore, in order to maximize the chance of detecting improvements in transfection we performed all our assays within 12-20 hours of transfection at a time when levels of reporter gene expression were lower. Previously we found a pDNA: liposome ratio of 1:3 (w/w) optimal for transfections in ND7 cells ^31. […]
# COS-7 cells = assay: β-galactosidase enzyme assay, transfection of COS-7 cells; format: cell-based, Green Monkey; conditions: COS-7, same pDNA:Mu1:liposome ratio as optimal for ND7
# Method: COS cells were seeded at a density of 60-80% confluence in 24 well culture dishes 24 hrs prior to transfection. Immediately prior to transfection, cells were washed in serum-free media Incubating pCMVβ with Mu1 prior to the addition of the cationic liposome DC-Chol/DOPE formed complexes capable of cellular transfection. In each case 1 μg pCMVβ was complexed with 12 μg Mu1 peptide that had been found optimal for ND7 cells. The pCMVβ:Mu1 complexes were then mixed with 3, 4 and 6 μg DC-Chol/DOPE. COS cells were exposed to transfection complexes for 2 hours then maintained at 37° C., 5% CO2 for another 24 hrs before being harvested and processed for β-galactosidase enzyme assay. Numbers represent means±SD, n=3.
# COS-7 cells (derived from Green Monkey kidney) were grown in RPMI 1640 media (BRL) supplemented with 10% fetal bovine serum (BRL) and 100 IU/mL penicillin/streptomycin (BRL).
# In order to see whether improved transfections could be achieved in other cell types we performed a similar analysis on COS-7 cells. […] The same ratio of pDNA:Mu1:liposome optimal for ND7 cells was best for COS-7, cells. A similar degree of improvement was also seen (3.7 fold) over cationic liposomes alone.
# HeLa cells = assay: β-galactosidase assay, alternative cationic peptides in HeLa cells; format: cell-based, human; conditions: DC-Chol:DOPE liposome:peptide:DNA 12:0.6:1, 30 min, DNA 1.0 μg/ml
# Method: In order to examine the effects of various alternative cationic peptides on transfection activities, a series of liposome:cationic peptide:DNA complexes were prepared and their relative transfection abilities analysed in vitro. The peptides used were poly-lysine hydrochloride (average molecular weight 3970, Sigma), poly arginine hydrochloride (average molecular weight 11800, Sigma) a peptide derived from protein V, pV (p5, sequence shown below), a peptide analogue of Mu1 (V, sequence shown below) and Mu1 peptide itself. The p5 peptide and V peptide were synthesized using the same solid-phase peptide synthesis methodology as was used to prepare Mu1 peptide.
# Each peptide was combined with cationic liposome (DC-Chol:DOPE 3:2 m/m) and DNA (pCMVβ) in the liposome:peptide:DNA ratio of 12:0.6:1 (w/w/w) as described in Example 4. The transfection activities were examined using HeLa cells (human epithelial cells). The cells were seeded at an approximate density of 5×10^4 per well in a 24-well culture plate in DMEM supplemented with 10% FCS and grown for 24 h in the presence of 5% CO2 at 37° C. Cells were washed by brief exposure to DMEM and then treated with solutions containing LMD or LD complexes, prediluted with OPTIMEM (Gibco) (final DNA concentration 1.0 μg/ml in all cases), for 30 min. Cells were then washed again and incubated for a further 48 h in DMEM supplemented with 10% FCS prior to harvesting. The level of β-galactosidase enzyme activity was determined with a standard assay kit (chemiluminescent, Roche).
substance,measurement,setting,value
H-MRRAHHRRRRASHRRMRGG-OH [Mu1],"concentration in solution, optimal transfections","ND7 cells; 12 μg Mu1/1 μg pCMVβ, 400 μL",30 ng/mL
same,relative ratios pCMVβ/Mu1/(DC-Chol/DOPE) giving greatest improvement in transfection efficiencies,"ND7 cells; 0.6-21 μg Mu1, 3-6 μg liposome per 1 μg pCMVβ tested",1/12/6
same,increase in transfections compared to DNA alone,ND7 cells; 1/12/6 pCMVβ/Mu1/(DC-Chol/DOPE) w/w/w,11 fold
same,concentration of protein in the cellular lysates vs untransfected cells,ND7 cells; Mu1 complex (data not shown),did not significantly vary
same,improvement in transfection efficiencies over naked DNA,"ND7 cells; pCMVβ complexed to Mu1 alone, no liposome",No improvement in transfection efficiencies over naked DNA
same,effect on transfection efficiencies,"ND7 cells; pDNA:Mu1 1:0.5 (w/w) with liposomes, initial experiments (not shown)",did not affect transfection efficiencies
same,improvement of cationic liposome mediated transfection efficiencies,"ND7 cells; β-galactosidase activity, Mu1 with DC-Chol/DOPE vs liposome without Mu1",over 4 fold
same,improvement over cationic liposomes alone,COS-7 cells,3.7 fold
same,transfection activity compared to poly lysine and poly arginine complexes,HeLa cells,excellent transfection activity
